Experimental data taken from patent US12440471B2, “Compositions and methods for the treatment of bronchopulmonary dysplasia (BPD) and BPD-associated pulmonary hypertension” (AyuVis Research, Inc., priority 2021, dated 2025).

Tests used:
[1] = PK study in rat pups by SC or IV (plasma, BALF); assay type: in vivo
Text: Pharmacokinetic (PK) Profile of AVR-48 (compound 8). The PK studies of AVR-48 were developed and designed in-house, by high performance liquid chromatography (HPLC), in both mouse and rat pups by IV, IP and IN dosing, to check the bioavailability of the drug formulated as solution, suspension or nanoparticle encapsulation in plasma, broncho-alveolar lavage fluid (BALF) and lung tissues.
A sustained level of AVR-48 was observed only where T1/2 was not estimable. For the IV dosed animals only, maximum concentration was followed by decline on PK Day 1 but was followed by sustained level of AVR-48 on PK Day 3. T1/2 was also not estimable. […] In summary, exposure to AVR-48 increased for 100 mg/kg/day for both routes after 3 days of twice daily administration but not for the 150 mg/kg/day groups.
Animals. C57BL/6J mice were purchased from The Jackson Laboratory (Bar Harbor, ME, USA) and were maintained in a breeding colony at Drexel University, Philadelphia, PA, USA. Animal procedures were performed in accordance with the NIH Guide for the Care and Use of Laboratory Animals and were approved by the Institutional Animal Care and Use Committee (IACUC) of Drexel University Philadelphia, PA (Protocol No. 20706). Neonatal rat pups born from female pregnant Sprague Dawley Crl:CD (SD) rats (Charles River Laboratories, St-Constant, QC, Canada) were used for the toxicology and PK studies to evaluate safety, determine the maximum tolerated dose (MTD) and the PK profile of AVR-48. A minimum 6-day acclimation period was allowed between receipt of the animals and the start of treatment to accustom the rats to the laboratory environment. All rat studies were approved by the IACUC of ITR Laboratories, Canada (Protocol No. 74691).
Formulation of AVR-48 for efficacy and toxicokinetic studies. For the mouse dose response efficacy studies, AVR-48 was reconstituted in 0.9% sterile normal saline to give a final dose concentration of […] as a colorless solution, and injected IP (30 μl) on P2 and P4. The PLGA encapsulated AVR-48 or the GFP-tagged analog was resuspended in deionized sterile water to make a nanosuspension with final dose concentration of 0.025, 0.05 and 0.11 mg/kg/drop. The surfactant Curosurf® (Cheisi Parma, Italy), available commercially, was delivered IN at a volume of 3 μl per nostril, on P2 and P4. For the toxicokinetic study of AVR-48 in rat pups, a formulation of 10% DMSO, 20% tetraglycol, 20% PEG 400, and 50% sterile water was made fresh before administration (Shah, Das et al. 2021).

[2] = test system: adult respiratory distress syndrome/acute lung injury (ARDS/ALI) mouse model; conditions: cited from earlier work
hPBMC = experiment: Macrophage populations in hPBMC by FACS; assay type: cell-based, human; conditions: 72 h
Procedure: Briefly, hPBMC were plated in a 96 well plate and treated with AVR 48 for 72 hrs. The cells were washed and stained for CD32, CD14, CD16, HLADR, CD86, CD206 anti-human antibodies and were analyzed by FACS. Dead cells were excluded by live/dead staining (7AAD) during analysis. The % of intermediate macrophages of the parent cells are determined as the macrophages stained positive for both HLADR and CD206 surface markers. The bar graph representing percentage of intermediate macrophages (Mint) of the parent macrophage populations (CD14+CD16+) after treatment with AVR-48. n=2 technical replicates and the experiment is repeated 3 times. AVR-48 binds to both toll-like receptor 4 (TLR4) and CD163 receptor on monocytes. In hPBMC, AVR-48 treatment for 72 h increased the percentage of intermediate macrophages and decreased M1 macrophages.

pre-term lamb BPD model = experiment: Pre-term lamb BPD model: respiratory system mechanics by forced oscillation technique; assay type: in vivo
Text: Forced oscillation technique (FOT) allows non-invasive measurement of respiratory system (rs) impedance (Zrs) in uncooperative subjects by applying a pressure stimulus at the airway opening and measuring the resulting flow. The inventors have shown that FOT provides reliable noninvasive measurement of respiratory system mechanics in spontaneously breathing, normal term lambs from birth through the first 5 months of life (Dahl, Bowen et al. 2018). The methods and normal reference values defined in this study provide normal physiological context for determining the pathophysiological consequences of preterm birth.

[3] = test system: hyperoxia-exposed BPD mouse model; experiment: BPD mouse model: flow cytometry of lung immune cell populations; assay type: in vivo
Procedure: AVR-48 normalizes two important innate immune cell populations in animals with BPD. Based on the affinity of AVR-48 for TLR4 and the increased TLR4 expression in AVR-48 treated BPD animals, the inventors determined if there would be an impact on immune cell recruitment to the lung interstitium. Flow cytometry was performed to determine absolute numbers of key immune cell populations in the lung of neonatal mice pups from AVIS-48-treated and untreated animals in the RA and BPD groups. […] All other cell populations were similar (FIG. 11).

[4] = test system: human cord blood monocytes (CBMC); experiment: Cytokines in human cord blood monocytes (CBMC); assay type: cell-based
Text: IL-12p40, is a marker for the innate immune response to infection and is down regulated in CBMC.

TLR4 = target: T1, TLR4 (Homo sapiens, UniProt O00206); experiment: TLR4 level in THP-1 human monocytic cells by ELISA; assay type: cell-based
T1 construct: Cell lysates were prepared, total protein was quantified and treated with different concentrations; host or cells: THP-1 cells stimulated with PMA for 48 h, then lysed

[5] = AVR-48-treated RA animals vs RA animals
[6] = treated vs untreated BPD animals, similar to RA control

T1 sequence (O00206 24-839): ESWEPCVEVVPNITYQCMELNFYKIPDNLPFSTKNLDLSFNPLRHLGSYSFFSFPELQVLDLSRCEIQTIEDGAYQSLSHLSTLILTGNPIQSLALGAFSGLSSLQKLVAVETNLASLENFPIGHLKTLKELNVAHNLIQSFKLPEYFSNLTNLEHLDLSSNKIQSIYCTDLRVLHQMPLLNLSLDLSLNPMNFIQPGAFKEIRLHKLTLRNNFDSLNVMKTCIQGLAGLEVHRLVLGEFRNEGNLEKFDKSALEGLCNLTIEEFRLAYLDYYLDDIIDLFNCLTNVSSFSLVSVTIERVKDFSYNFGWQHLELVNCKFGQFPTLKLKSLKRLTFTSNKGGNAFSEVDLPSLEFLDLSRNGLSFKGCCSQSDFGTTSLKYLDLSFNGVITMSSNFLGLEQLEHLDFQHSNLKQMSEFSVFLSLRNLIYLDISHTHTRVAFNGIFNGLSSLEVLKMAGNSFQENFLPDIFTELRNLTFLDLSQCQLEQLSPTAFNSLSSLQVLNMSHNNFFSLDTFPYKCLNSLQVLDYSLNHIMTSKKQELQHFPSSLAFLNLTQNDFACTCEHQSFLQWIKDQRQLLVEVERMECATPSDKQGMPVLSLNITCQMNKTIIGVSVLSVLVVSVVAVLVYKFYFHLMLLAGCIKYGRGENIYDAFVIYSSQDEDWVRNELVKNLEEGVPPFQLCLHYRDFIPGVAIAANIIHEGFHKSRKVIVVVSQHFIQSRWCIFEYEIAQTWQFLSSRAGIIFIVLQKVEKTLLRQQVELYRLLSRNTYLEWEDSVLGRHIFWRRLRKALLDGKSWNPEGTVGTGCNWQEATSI

SMILES: CC(=O)N[C@@H]1C(Oc2ccc([N+](=O)[O-])cc2)OC(CO)C(O)C1O (stereo partly drawn) [AVR-48]
- accumulation ratio using AUC(0-t) ([1]; BALF, IV dosed animals): 2.04
- decline of plasma concentration ([1]; IV dosed animals): declined in a bi-exponential fashion
- Tmax (maximum plasma concentration) ([1]; Sprague Dawley Crl:CD, rat, in vivo, 150 mg/kg/day): 60 min
- Tmax ([1]; Sprague Dawley Crl:CD, rat, in vivo, 150 mg/kg/day, Tmax (maximum plasma concentration)): 30 min
- Tmax ([1]; Sprague Dawley Crl:CD, rat, in vivo, Tmax): 15 to 60 min
- AUC(0-t) ([1]; Sprague Dawley Crl:CD, rat, in vivo, iv, AUC(0-t)): 4.2 µg·h/mL
- Cmax ([1]; Sprague Dawley Crl:CD, rat, in vivo, maximum concentration (Cmax)): 0.891 to 1.07 µg/mL
- accumulation in plasma ([1]; after 3 days of twice daily administration): no accumulation of the drug
- efficacy dose ([2]; IV, Shah, Das et al. 2021): 10 mg/kg/dose
- severe lung inflammation ([2]; LPS-, hyperoxia- and CLP-induced ARDS in adult mice): decreases severe lung inflammation
- M1 macrophages (hPBMC): decreased
- percentage of intermediate macrophages (hPBMC): increased
- reactance (X7 hz) (pre-term lamb BPD model; 3 mg/Kg, day of life 10): less reactance
- small airway resistance (R7-20 hz) (pre-term lamb BPD model; 3 mg/Kg, day of life 10): less small airway resistance
- resistance (R7 hz; respiratory system) (pre-term lamb BPD model; 3.0 mg/Kg, day of life 10, relative to placebo): lower resistance
- all other immune cell populations in the lung [3, 5]: similar
- dendritic cells in the lung [3, 5]: increase
- macrophages in the lung [3, 5]: slight, but statistically significant, decrease
- macrophages in the lung [3, 6]: increased
- neutrophils in the lung [3, 6]: decreased
- IL-10 increase ([4]; AVR-48 alone, 0.1-10 μM): ~2.5 fold
- IL-1β ([4]; LPS+AVR-48, 10 μM): decreased
- IL-10 ([4]; LPS+AVR-48, 10 μM): decreased
- IL-12p40 response ([4]; compound alone (10 μM) or with LPS, compared with only LPS): higher IL-12p40 response than only LPS
- TNF-α levels ([4]; human CBMC, LPS): decreased
- EC50, binding to monocytes/macrophages possibly via surface receptor TLR4 (TLR4): sub nanomolar
- DC50 (TLR4; THP-1 cells, after 48 h of treatment, ELISA, read-out: EC50, decrease of TLR4 level): 0.076 µM
